The record followed here is patent US20120220577A1, “GLYCINE B ANTAGONISTS” (Merz Pharma GmbH & Co KgaA, priority 2009, published 2012).

Assay [1] deals with T1, glycine binding pocket of the NMDA receptor (Rattus norvegicus, UniProt P35439).
T1 construct: For isolation of the cell membranes, the cortices are homogenized; from tissue; host or cells: rat cerebral cortex membranes (male Sprague-Dawley)
Nature of the assay: [3H]MDL-105,519 displacement studies (rat cortical membranes). The conditions noted are these: displacement of 2 nM [3H]-MDL-105,519, rat cortical membranes; read-out: NMDA-MDL 105519-r-CTX - IC50.

Assay [2] deals with NMDA receptor glycine B site (Rattus norvegicus, UniProt P35439). Nature of the assay: Calcium FLIPR studies, rat cortical neurons (NMDA/D-Serine induced intracellular calcium). It is filed as cell-based. Details: Primary neurons are prepared from cortices of embryonal rats at day 17 of pregnancy; endogenous in cells; host or cells: primary rat cortical neurons (E17, 11-13 DIV). Particulars: rat cortical neurons; stimulation with 30 μM NMDA and 1 μM D-Serine; antagonist pre-incubated 10 min; read-out: NMDA-FLIPR-rCTX-NAM - IC50. The method in brief:
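Embryonic (E17) Sprague-Dawley rat cortical neurons, 11-13 days in vitro, loaded with Calcium-4 dye (pH 7.3) and pre-incubated with antagonist (5 concentrations) for 10 min at room temperature, then stimulated with 30 μM NMDA plus 1 μM D-Serine. FLIPR AUC as percent of agonist control; IC50 by four-parameter logistic fit.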
For orientation: A change in cytosolic calcium serves as a functional read-out for many receptors and channels.

One may read the IC50 as the concentration at which inhibition is half-maximal.

As for `O=C(COc1cc(C(=O)O)cc2cc(Cl)cc(Cl)c12)Nc1ccccc1OCc1nnn[nH]1` [Example 60, 5,7-Dichloro-4-{[2-(1H-tetrazol-5-ylmethoxy)-phenylcarbamoyl]-methoxy}-naphthalene-2-carboxylic acid], the IC50 was 0.203 µM in assay [1] and 1.56 µM in assay [2].
Regarding `O=C(O)Cc1ccc(NC(=O)COc2cc(C(=O)O)cc3cc(Cl)cc(Cl)c23)cc1` [Example 7, 4-[(4-Carboxymethylphenylcarbamoyl)-methoxy]-5,7-dichloronaphthalene-2-carboxylic acid], the concentration for half-maximal inhibition (IC50) was 0.958 µM in assay [1] and 4.01 µM in assay [2].
As to `CN(C(=O)COc1cc(C(=O)O)cc2cc(Cl)cc(Cl)c12)c1ccc(C(=O)O)cc1` [Example 14, 4-{[(4-Carboxy-phenyl)-methylcarbamoyl]-methoxy}-5,7-dichloronaphthalene-2-carboxylic acid], the 50% inhibitory concentration (IC50) was found to be 4.34 µM in assay [1] and 7.33 µM in assay [2].
With `O=C(O)Cc1cccc(NC(=O)COc2cc(C(=O)O)cc3cc(Cl)cc(Cl)c23)c1` [Example 13, 4-[(3-Carboxymethylphenylcarbamoyl)-methoxy]-5,7-dichloronaphthalene-2-carboxylic acid], the concentration for half-maximal inhibition (IC50) in assay [1] was 0.457 µM; in assay [2], 1.96 µM.
For the molecule `NCc1ccc(NC(=O)COc2cc(C(=O)O)cc3cc(Cl)cc(Cl)c23)c(OCC(=O)O)c1` [Example 34, 4-[(4-Aminomethyl-2-carboxymethoxyphenylcarbamoyl)-methoxy]-5,7-dichloronaphthalene-2-carboxylic acid], the concentration for half-maximal inhibition (IC50) in assay [1] turned out to be 0.0119 µM; in assay [2], 0.211 µM.
With `O=C(O)Cc1ccccc1NC(=O)COc1cc(C(=O)O)cc2cc(Cl)cc(Cl)c12` [Example 15, 4-[(2-Carboxymethylphenylcarbamoyl)-methoxy]-5,7-dichloronaphthalene-2-carboxylic acid], the half-maximal inhibitory concentration (IC50) in assay [1] turned out to be 0.503 µM; in assay [2] it was 2.68 µM.
`O=C(COc1cc(C(=O)O)cc2cc(Cl)cc(Cl)c12)Nc1ccccc1C(=O)O` [Example 3, 4-[(2-Carboxy-phenylcarbamoyl)-methoxy]-5,7-dichloro-naphthalene-2-carboxylic acid]: the half-inhibitory concentration (IC50) was 0.765 µM in assay [1] and 3.27 µM in assay [2].
In the case of `COCC(Oc1cc(C(=O)O)cc2cc(Cl)cc(Cl)c12)C(=O)Nc1ccccc1OC` (stereo not shown) [Example 74, 5,7-Dichloro-4-[2-methoxy-1-(2-methoxy-phenylcarbamoyl)-ethoxy]-naphthalene-2-carboxylic acid], the concentration for half-maximal inhibition (IC50) stood at 1.01 µM in assay [1] and 5.46 µM in assay [2].
As for `O=C(O)COc1ccccc1CNC(=O)COc1cc(C(=O)O)cc2cc(Cl)cc(Cl)c12` [Example 59, 4-[(2-Carboxymethoxy-benzylcarbamoyl)-methoxy]-5,7-dichloro-naphthalene-2-carboxylic acid], the values for the 50% inhibitory concentration (IC50) in assay [1] and in assay [2] were 0.083 µM and 0.88 µM, respectively.
Consider `O=C(COc1cc(C(=O)O)cc2cc(Cl)cc(Cl)c12)NCc1ccccc1` [Example 18, 4-(Benzylcarbamoylmethoxy)-5,7-dichloro-naphthalene-2-carboxylic acid], for which the values for the IC50 in assay [1] and in assay [2] were 0.988 µM and 9.56 µM, respectively.
Taken in the same sequence, the figures for `O=C(O)COc1ccccc1NC(=O)COc1cc(C(=O)O)cc2cc(Cl)cc(Cl)c12` [Example 42, 4-[(2-Carboxymethoxyphenylcarbamoyl)-methoxy]-5,7-dichloronaphthalene-2-carboxylic acid] were 0.055 µM and 0.105 µM.
Turning to `CN(C(=O)COc1cc(C(=O)O)cc2cc(Cl)cc(Cl)c12)c1ccccc1C(=O)O` [Example 20, 4-{[(2-Carboxyphenyl)-methylcarbamoyl]-methoxy}-5,7-dichloronaphthalene-2-carboxylic acid], the IC50 in assay [1] was 0.405 µM; in assay [2], 1.22 µM.
On the same counts, the results for `O=C(COc1cc(C(=O)O)cc2cc(Cl)cc(Cl)c12)Nc1ccccc1OCC(=O)N1CCOCC1` [Example 54, 5,7-Dichloro-4-{[2-(2-morpholin-4-yl-2-oxo-ethoxy)-phenylcarbamoyl]-methoxy}-naphthalene-2-carboxylic acid] are 0.228 µM and 1.7 µM.
In the case of `O=C(COc1cc(C(=O)O)cc2cc(Cl)cc(Cl)c12)Nc1ccccc1CO` [Example 5, 5,7-Dichloro-4-[(2-hydroxymethylphenylcarbamoyl)-methoxy]-naphthalene-2-carboxylic acid], the concentration for half-maximal inhibition (IC50) in assay [1] worked out at 0.562 µM; in assay [2], 7.08 µM.
Taken in the same sequence, the figures for `O=C(O)c1cc(OCC(=O)N2CCCc3ccccc32)c2c(Cl)cc(Cl)cc2c1` [Example 50, 5,7-Dichloro-4-[2-(3,4-dihydro-2H-quinolin-1-yl)-2-oxo-ethoxy]-naphthalene-2-carboxylic acid] were 1.19 µM and 7.41 µM.
Taken in the same sequence, the figures for `O=C(O)COc1cc(C(=O)O)cc2cc(Cl)cc(Cl)c12` [Example 1, 4-Carboxymethoxy-5,7-dichloronaphthalene-2-carboxylic acid] were 1.18 µM and 6.2 µM.
Taken in the same sequence, the figures for `O=C(O)c1cc(OCC(=O)N2CCOc3c(CO)cccc32)c2c(Cl)cc(Cl)cc2c1` [Example 78, 5,7-Dichloro-4-[2-(8-hydroxymethyl-2,3-dihydro-benzo[1,4]oxazin-4-yl)-2-oxo-ethoxy]-naphthalene-2-carboxylic acid] were 0.988 µM and 4.13 µM.
